Structures can show the parent of a compound that is named as a salt.
Biological target: T1, BACE1 (Homo sapiens, UniProt P56817)
T1 construct: endogenous in cells; host or cells: HEK293 APP cells
Assay: Cellular Aβ-lowering assay (Abeta 40 AlphaLISA in HEK293 APP cells)
Assay type: cell-based
Settings: 18-20 hrs incubation, Aβ 40 in culture supernatants by AlphaLISA
Procedure: Cellular Aβ-Lowering Assay:
The Abeta 40 AlphaLISA Assay can be used. The HEK293 APP cells were seeded in 96 well Microtiter plates in cell culture medium (Iscove's, plus 10% (v/v) fetal bovine serum, penicillin/streptomycin) to about 80% confluency and the compounds were added at a 3× concentration in ⅓ volume of culture medium (final DMSO concentration was kept at 1% v/v). After 18-20 hrs incubation at 37° C. and 5% CO2 in a humidified incubator, the culture supernatants were harvested for the determination of Aβ 40 concentrations using Perkin-Elmer Human Amyloid beta 1-40 (high specificity) Kit (Cat# AL275C).
In a Perkin-Elmer White Optiplate-384 (Cat#6007290), 2 ul culture supernatants were combined with 2 μl of a 10× AlphaLISA Anti-hAβAcceptor beads+Biotinylated Antibody Anti-Aβ 1-40 Mix (50 μg/mL/5 nM). After 1 hour room temperature incubation, 16 μl of a 1.25× preparation of Streptavidin (SA) Donor beads (25 μg/mL) were added and incubated for 30 minutes in the Dark. Light Emission at 615 nm was then recorded using En Vision-Alpha Reader. Levels of Aβ 40 in the culture supernatants were calculated as percentage of maximum signal (cells treated with 1% DMSO without inhibitor). The IC50 values were calculated using the Excel XLfit software.

T1 sequence (P56817 46-501): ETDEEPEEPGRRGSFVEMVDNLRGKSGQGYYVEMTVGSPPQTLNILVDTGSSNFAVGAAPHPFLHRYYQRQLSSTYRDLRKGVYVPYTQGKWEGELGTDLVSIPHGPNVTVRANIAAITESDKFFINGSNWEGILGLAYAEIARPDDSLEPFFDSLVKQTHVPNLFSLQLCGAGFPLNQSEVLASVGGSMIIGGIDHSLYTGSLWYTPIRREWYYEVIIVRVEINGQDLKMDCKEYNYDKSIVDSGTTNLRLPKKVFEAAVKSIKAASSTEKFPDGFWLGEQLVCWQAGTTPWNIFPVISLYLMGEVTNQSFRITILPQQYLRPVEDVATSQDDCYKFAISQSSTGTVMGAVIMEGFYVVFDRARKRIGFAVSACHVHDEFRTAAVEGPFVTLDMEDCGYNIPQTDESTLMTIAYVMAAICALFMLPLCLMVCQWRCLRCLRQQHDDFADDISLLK

Compound	IC50
Cc1cc(C#N)cnc1C(=O)Nc1ccc(F)c([C@]2(C)C[S@@](=O)(=NCC(F)(F)F)N(C)C(N)=N2)n1 [Example 3, N-[6-[(1R,5R)-3-amino-2,5-dimethyl-1-oxo-1-(2,2,2-trifluoroethylimino)-6H-1,2,4-thiadiazin-5-yl]-5-fluoro-2-pyridyl]-5-cyano-3-methyl-pyridine-2-carboxamide 2,2,2-trifluoroacetic Acid Salt]	0.991 nM
CN1C(N)=N[C@](C)(c2nc(NC(=O)c3ccc(C#N)cn3)ccc2F)C[S@@]1(=O)=NCC(F)(F)F [Example 4, N-[6-[(1R,5R)-3-amino-2,5-dimethyl-1-oxo-1-(2,2,2-trifluoroethylimino)-6H-1,2,4-thiadiazin-5-yl]-5-fluoro-2-pyridyl]-5-cyano-pyridine-2-carboxamide 2,2,2-trifluoroacetic Acid Salt]	2.7 nM
CN1C(N)=N[C@](C)(c2nc(NC(=O)c3ccc(OCF)cn3)ccc2F)C[S@@]1(=O)=NCC(F)(F)F [Example 6, N-[6-[(1R,5R)-3-amino-2,5-dimethyl-1-oxo-1-(2,2,2-trifluoroethylimino)-6H-1,2,4-thiadiazin-5-yl]-5-fluoropyridin-2-yl]-5-(fluoromethoxy)pyridine-2-carboxamide 2,2,2-trifluoroacetic Acid Salt]	3.84 nM
CC#CCOc1cnc(C(=O)Nc2ccc(F)c([C@]3(C)C[S@@](=O)(=NCC(F)(F)F)N(C)C(N)=N3)n2)cn1 [Example 7, N-[6-[(1R,5R)-3-amino-2,5-dimethyl-1-oxo-1-(2,2,2-trifluoroethylimino)-6H-1,2,4-thiadiazin-5-yl]-5-fluoropyridin-2-yl]-5-but-2-ynoxypyrazine-2-carboxamide; 2,2,2-trifluoroacetic Acid]	0.737 nM
COc1cnc(C(=O)Nc2ccc(F)c([C@]3(C)C[S@@](=O)(=NCC(F)(F)F)N(C)C(N)=N3)n2)cn1 [Example 8, N-[6-[(1R,5R)-3-amino-2,5-dimethyl-1-oxo-1-(2,2,2-trifluoroethylimino)-6H-1,2,4-thiadiazin-5-yl]-5-fluoropyridin-2-yl]-5-methoxypyrazine-2-carboxamide 2,2,2-trifluoroacetic Acid Salt]	10.1 nM
CN1C(N)=N[C@](C)(c2nc(NC(=O)c3ccc(OCC(F)(F)F)cn3)ccc2F)C[S@@]1(=O)=NCC(F)(F)F [Example 9, N-[6-[(1R,5R)-3-amino-2,5-dimethyl-1-oxo-1-(2,2,2-trifluoroethylimino)-6H-1,2,4-thiadiazin-5-yl]-5-fluoropyridin-2-yl]-5-(2,2,2-trifluoroethoxy)pyridine-2-carboxamide 2,2,2-trifluoroacetic Acid Salt]	50.7 nM
CN=S1(=O)C[C@@](C)(c2nc(NC(=O)c3ncc(C#N)cc3Cl)ccc2F)N=C(N)N1CC(F)(F)F (stereo partly drawn) [Example 17, N-(6-((5R)-3-amino-5-methyl-1-(methylimino)-1-oxido-2-(2,2,2-trifluoroethyl)-5,6-dihydro-2H-1,2,4-thiadiazin-5-yl)-5-fluoropyridin-2-yl)-3-chloro-5-cyanopicolinamide]	0.292 nM

Other lines, results leading:

IC50	Compound
13.9 nM	Cc1cc(F)cnc1C(=O)Nc1ccc(F)c([C@]2(C)C[S@@](=O)(=NCC(F)(F)F)N(C)C(N)=N2)n1 [Example 5, N-[6-[(1R,5R)-3-amino-2,5-dimethyl-1-oxo-1-(2,2,2-trifluoroethylimino)-6H-1,2,4-thiadiazin-5-yl]-5-fluoropyridin-2-yl]-5-fluoro-3-methylpyridine-2-carboxamide 2,2,2-trifluoroacetic Acid Salt]
134 nM	CN=S1(=O)CC(C)(c2nc(NC(=O)c3ncc(C#N)cc3C)ccc2F)N=C(N)N1CC(F)(F)F (stereo not drawn) [Example 13, N-[6-[3-amino-5-methyl-1-methylimino-1-oxo-2-(2,2,2-trifluoroethyl)-6H-1,2,4-thiadiazin-5-yl]-5-fluoropyridin-2-yl]-5-cyano-3-methylpyridine-2-carboxamide; 2,2,2-trifluoroacetic Acid]
0.986 nM	CN=S1(=O)C[C@@](C)(c2nc(NC(=O)c3ncc(C#N)cc3C)ccc2F)N=C(N)N1CC(F)(F)F (stereo partly drawn) [Example 15, N-[6-[(5R)-3-amino-5-methyl-1-methylimino-1-oxo-2-(2,2,2-trifluoroethyl)-6H-1,2,4-thiadiazin-5-yl]-5-fluoropyridin-2-yl]-5-cyano-3-methylpyridine-2-carboxamide; 2,2,2-trifluoroacetic acid]
0.593 nM	CN=S1(=O)C[C@@](C)(c2nc(NC(=O)c3ncc(C#N)cc3C)ccc2F)N=C(N)N1CC(F)(F)F (stereo partly drawn) [Example 16, N-[6-[(5R)-3-amino-5-methyl-1-methylimino-1-oxo-2-(2,2,2-trifluoroethyl)-6H-1,2,4-thiadiazin-5-yl]-5-fluoropyridin-2-yl]-5-cyano-3-methylpyridine-2-carboxamide; 2,2,2-trifluoroacetic Acid]
74.5 nM	CN=S1(=O)C[C@@](C)(c2nc(NC(=O)c3ncc(F)cc3C)ccc2F)N=C(N)N1CC(F)(F)F (stereo partly drawn) [Example 18, N-[6-[(5R)-3-amino-5-methyl-1-methylimino-1-oxo-2-(2,2,2-trifluoroethyl)-6H-1,2,4-thiadiazin-5-yl]-5-fluoropyridin-2-yl]-5-fluoro-3-methylpyridine-2-carboxamide; 2,2,2-trifluoroacetic acid]
